Measured values from ChEMBL document CHEMBL4184315, “Discovery of Inhibitor of Wnt Production 2 (IWP-2) and Related Compounds As Selective ATP-Competitive Inhibitors of Casein Kinase 1 (CK1) δ/ε” (J Med Chem, 2018).
Calls of active or inactive are those of the source. No cut-off for these calls is given here.

Columns and labels:
[1] = test system: HEK-293T; assay: Toxicity in HEK293T cells at 0.5 to 5 uM after 6 to 22 hrs by CellTiter-Glo assay; assay type: cell-based; details: human
[2] = target: T1, Protein-serine O-palmitoleoyltransferase porcupine (Homo sapiens) (UniProt Q9H237); assay: Inhibition of porcupine in HEK293T cells transfected with Wnt3A-expressing vector assessed as suppression of Wnt/beta-catenin signaling at 5 uM after 22 hrs by Super-top flash reporter gene assay relative to control; assay type: cell-based
T1 sequence (whole entry): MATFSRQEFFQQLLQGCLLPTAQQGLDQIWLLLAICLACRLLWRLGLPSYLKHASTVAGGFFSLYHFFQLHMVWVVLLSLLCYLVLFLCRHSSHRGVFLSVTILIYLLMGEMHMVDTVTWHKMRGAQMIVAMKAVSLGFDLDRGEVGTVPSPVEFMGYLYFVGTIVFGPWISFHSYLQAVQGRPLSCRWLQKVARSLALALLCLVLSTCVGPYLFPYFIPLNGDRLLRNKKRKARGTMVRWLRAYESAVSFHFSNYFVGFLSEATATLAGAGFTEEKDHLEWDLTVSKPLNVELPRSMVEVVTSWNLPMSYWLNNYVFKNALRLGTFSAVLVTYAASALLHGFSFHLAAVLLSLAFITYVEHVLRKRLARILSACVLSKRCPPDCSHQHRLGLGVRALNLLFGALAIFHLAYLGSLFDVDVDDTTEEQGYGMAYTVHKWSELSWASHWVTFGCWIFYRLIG

[3] = target: Casein kinase I isoform gamma-3 (Homo sapiens) (UniProt Q9Y6M4); assay: Inhibition of human GST-tagged CK1gamma3 at 1 uM using alpha-casein as substrate after 30 mins in presence of [gamma-32P]-ATP by Cherenkov counting method
[4] = test system: HEK-293T; assay: Upregulation of renilla luciferase expression in HEK293T cells up to 5 uM after 22 hrs in presence of Wnt3A-conditioned medium by luminescence assay relative to control; assay type: cell-based; details: human
[5] = target: Casein kinase I isoform delta (Rattus norvegicus, UniProt Q06486, M82F); assay: Inhibition of rat GST-tagged CK1delta M82F mutant at 10 uM using alpha-casein as substrate after 30 mins in presence of [gamma-32P]-ATP by Cherenkov counting method
[6] = target: T2, Casein kinase I isoform delta (Homo sapiens, UniProt P48730); assay: Inhibition of CK1delta in HEK293T cells assessed as stimulation of Wnt/beta-catenin signaling after 22 hrs in presence of Wnt3A-conditioned medium by Super-top flash reporter gene assay; assay type: cell-based
Target sequence in this assay (P48730 whole entry, canonical isoform): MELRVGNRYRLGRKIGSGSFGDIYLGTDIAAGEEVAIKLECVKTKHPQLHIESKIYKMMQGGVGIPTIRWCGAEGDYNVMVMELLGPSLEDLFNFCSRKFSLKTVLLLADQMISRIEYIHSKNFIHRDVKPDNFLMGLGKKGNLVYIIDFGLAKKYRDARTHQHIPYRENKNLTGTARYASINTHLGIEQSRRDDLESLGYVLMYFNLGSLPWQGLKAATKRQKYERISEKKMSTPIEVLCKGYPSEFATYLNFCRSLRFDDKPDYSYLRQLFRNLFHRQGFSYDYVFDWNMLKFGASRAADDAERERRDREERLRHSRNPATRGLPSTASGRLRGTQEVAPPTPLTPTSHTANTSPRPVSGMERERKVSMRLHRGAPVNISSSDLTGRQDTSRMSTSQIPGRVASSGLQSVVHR

[7] = target: T3, Casein kinase I isoform delta (Rattus norvegicus, UniProt Q06486); assay: Inhibition of full-length rat GST-tagged CK1delta using alpha-casein as substrate after 30 mins in presence of [gamma-32P]-ATP by Cherenkov counting method
[8] = target: T4, Casein kinase I isoform alpha (Bos taurus) (UniProt P67827); assay: Inhibition of bovine GST-tagged CK1alpha at 1 uM using alpha-casein as substrate after 30 mins in presence of [gamma-32P]-ATP by Cherenkov counting method
T4 sequence (whole entry): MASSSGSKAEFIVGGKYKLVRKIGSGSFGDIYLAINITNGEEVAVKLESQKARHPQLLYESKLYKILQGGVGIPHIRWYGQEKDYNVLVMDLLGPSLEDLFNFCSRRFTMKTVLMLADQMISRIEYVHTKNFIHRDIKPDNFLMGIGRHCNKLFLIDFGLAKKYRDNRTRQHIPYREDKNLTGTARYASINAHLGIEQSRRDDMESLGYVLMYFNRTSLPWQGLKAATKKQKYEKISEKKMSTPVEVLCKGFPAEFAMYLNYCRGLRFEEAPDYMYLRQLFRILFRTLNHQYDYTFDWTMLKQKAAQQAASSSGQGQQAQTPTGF

[9] = target: T2, Casein kinase I isoform delta; assay: Inhibition of CK1delta in HEK293T cells assessed as stimulation of Wnt/beta-catenin signaling at 5 uM after 22 hrs in presence of Wnt3A-conditioned medium by Super-top flash reporter gene assay relative to control; assay type: cell-based
Target sequence in this assay (P48730 whole entry, looked up, canonical isoform): as the sequence (P48730 whole entry, canonical isoform) above

[10] = target: T3, Casein kinase I isoform delta; assay: Inhibition of rat recombinant CK1delta kinase domain using alpha-casein as substrate after 30 mins in presence of [gamma-32P]-ATP by Cherenkov counting method
[11] = test system: HEK-293T; assay: Upregulation of renilla luciferase expression in HEK293T cells transfected with Wnt3A-expressing vector up to 5 uM after 22 hrs by luminescence assay relative to control; assay type: cell-based; details: human
[12] = target: T2, Casein kinase I isoform delta; assay: Inhibition of human recombinant CK1delta at 1 uM after 60 mins in presence of [gamma-33P]-ATP by scintillation counting method
Target sequence in this assay (P48730 whole entry, looked up, canonical isoform): as the sequence (P48730 whole entry, canonical isoform) above

[13] = target: Casein kinase I isoform epsilon (Homo sapiens, UniProt P49674); assay: Inhibition of human recombinant CK1epsilon using alpha-casein as substrate after 30 mins in presence of [gamma-32P]-ATP by Cherenkov counting method
[14] = target: T5, Protein-serine O-palmitoleoyltransferase porcupine (Homo sapiens, UniProt Q9H237); assay: Inhibition of porcupine in HEK293T cells transfected with Wnt3A-expressing vector assessed as suppression of Wnt/beta-catenin signaling after 22 hrs by Super-top flash reporter gene assay; assay type: cell-based
T5 sequence (Q9H237 whole entry): T1 sequence (whole entry)

[15] = organism: Homo sapiens; assay: Inhibition of Wnt/beta-catenin signaling in HEK293T cells after 22 hrs in presence of Wnt3A-conditioned medium by Super-top flash reporter gene assay; assay type: cell-based
[16] = Antiproliferative activity against human Panc89 cells after 48 hrs by MTT assay; assay type: functional, cell-based
[17] = target: Casein kinase I isoform delta (Rattus norvegicus) (UniProt Q06486); assay: Inhibition of full-length rat GST-tagged CK1delta assessed as residual activity at 10 uM using alpha-casein as substrate after 30 mins in presence of [gamma-32P]-ATP by Cherenkov counting method
[18] = target: T2, Casein kinase I isoform delta; assay: Inhibition of human recombinant CK1delta assessed as residual activity at 1 uM after 60 mins in presence of [gamma-33P]-ATP by scintillation counting method
Target sequence in this assay (P48730 whole entry, looked up, canonical isoform): as the sequence (P48730 whole entry, canonical isoform) above

[19] = test system: MIA PaCa-2; assay: Antiproliferative activity against human MIAPaCa2 cells after 48 hrs by MTT assay; assay type: functional, cell-based; details: MIA PaCa-2, 48 h
[20] = test system: HT-29; assay: Antiproliferative activity against human HT-29 cells after 48 hrs by MTT assay; assay type: functional, cell-based; details: HT-29, 48 h
[21] = test system: PANC-1; assay: Antiproliferative activity against human PANC1 cells after 48 hrs by MTT assay; assay type: functional, cell-based; details: PANC-1, 48 h
[22] = target: T2, Casein kinase I isoform delta; assay: Inhibition of CK1delta in human PANC1 cells assessed as residual activity at 2.33 uM using GST-tagged p53 (1 to 64 residues) as substrate after 48 hrs in presence of [gamma-32P]-ATP by Cherenkov counting method; assay type: cell-based
Target sequence in this assay (P48730 whole entry, looked up, canonical isoform): as the sequence (P48730 whole entry, canonical isoform) above

[23] = target: Serine/threonine-protein kinase tousled-like 2 (Homo sapiens) (UniProt Q86UE8); assay: Inhibition of recombinant human TLK2 at 5 nM to 10 uM using alpha-casein as substrate after 30 mins in presence of [gamma-32P]-ATP by Cherenkov counting method
[24] = test system: HEK293; assay: Antiproliferative activity against human HEK293 cells after 48 hrs by MTT assay; assay type: functional, cell-based; details: HEK293, 48 h
[25] = test system: SW-620; assay: Antiproliferative activity against human SW620 cells after 48 hrs by MTT assay; assay type: functional, cell-based; details: SW-620, 48 h
[26] = target: Serine/threonine-protein kinase tousled-like 2 (Homo sapiens) (UniProt Q86UE8); assay: Inhibition of recombinant human N-terminal FLAG/C-terminal HIS8-tagged TLK2 assessed as residual activity at 1 uM after 60 mins in presence of [gamma-33P]-ATP by scintillation counting method
[27] = target: Casein kinase I isoform delta (Rattus norvegicus) (UniProt Q06486); assay: Competitive inhibition of full-length rat GST-tagged CK1delta at IC50 using alpha-casein as substrate after 30 mins in presence of 10 to 500 uM ATP and [gamma-32P]-ATP by Cherenkov counting method
[28] = test system: CAPAN-1; assay: Antiproliferative activity against human Capan1 cells after 48 hrs by MTT assay; assay type: functional, cell-based; details: CAPAN-1, 48 h
[29] = target: Tyrosine-protein kinase ZAP-70 (Homo sapiens) (UniProt P43403); assay: Inhibition of recombinant human ZAP70 at 5 nM to 10 uM using poly (L-glutamic acid-L-tyrosine) as substrate after 30 mins in presence of [gamma-32P]-ATP by Cherenkov counting method
[30] = target: Tyrosine-protein kinase ZAP-70 (Homo sapiens) (UniProt P43403); assay: Inhibition of recombinant human full length GST/His-tagged ZAP70 expressed in Sf9 cells assessed as residual activity at 1 uM after 60 mins in presence of [gamma-33P]-ATP by scintillation counting method
[31] = Selectivity ratio of IC50 for human CK1epsilon to IC50 for rat recombinant CK1delta kinase domain
[32] = target: Casein kinase I isoform delta (Rattus norvegicus) (UniProt Q06486); assay: Inhibition of rat recombinant CK1delta kinase domain assessed as residual activity at 10 uM using alpha-casein as substrate after 30 mins in presence of [gamma-32P]-ATP by Cherenkov counting method
[33] = target: Casein kinase I isoform delta (Rattus norvegicus) (UniProt Q06486); assay: Ratio of IC50 for full-length rat GST-tagged CK1delta to IC50 for rat recombinant CK1delta kinase domain
[34] = Antiproliferative activity against human A818-6 cells after 48 hrs by MTT assay; assay type: functional, cell-based
[35] = Selectivity ratio of IC50 for human CK1epsilon to IC50 for full-length rat GST-tagged CK1delta

Casein kinase I isoform delta (Rattus norvegicus), sequence (Q06486 whole entry, looked up, the tested form may be a part, canonical isoform): as the sequence (P48730 whole entry, canonical isoform) above, with I381V counted along it
T3 sequence (Q06486 whole entry, canonical isoform): as the sequence (P48730 whole entry, canonical isoform) above, with I381V counted along it
Tyrosine-protein kinase ZAP-70 (Homo sapiens), sequence (P43403 whole entry, the tested form may be a part): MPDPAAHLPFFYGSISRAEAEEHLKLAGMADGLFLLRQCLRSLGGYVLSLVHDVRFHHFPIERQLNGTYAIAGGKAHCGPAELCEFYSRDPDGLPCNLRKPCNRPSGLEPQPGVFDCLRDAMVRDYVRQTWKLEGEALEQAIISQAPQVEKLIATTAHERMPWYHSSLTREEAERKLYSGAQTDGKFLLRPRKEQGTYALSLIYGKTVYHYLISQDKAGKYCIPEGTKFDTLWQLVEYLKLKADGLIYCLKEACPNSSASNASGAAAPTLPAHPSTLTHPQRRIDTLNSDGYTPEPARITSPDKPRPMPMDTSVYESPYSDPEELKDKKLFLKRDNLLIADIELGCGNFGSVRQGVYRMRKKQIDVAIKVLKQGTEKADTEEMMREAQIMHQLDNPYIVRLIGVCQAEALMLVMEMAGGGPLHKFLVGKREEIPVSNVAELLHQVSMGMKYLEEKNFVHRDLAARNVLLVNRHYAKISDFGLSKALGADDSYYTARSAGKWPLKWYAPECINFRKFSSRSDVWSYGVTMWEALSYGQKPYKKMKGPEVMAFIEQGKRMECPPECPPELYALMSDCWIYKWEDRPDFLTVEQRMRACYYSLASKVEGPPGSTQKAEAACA
Serine/threonine-protein kinase tousled-like 2 (Homo sapiens), sequence (Q86UE8 whole entry, looked up, canonical isoform): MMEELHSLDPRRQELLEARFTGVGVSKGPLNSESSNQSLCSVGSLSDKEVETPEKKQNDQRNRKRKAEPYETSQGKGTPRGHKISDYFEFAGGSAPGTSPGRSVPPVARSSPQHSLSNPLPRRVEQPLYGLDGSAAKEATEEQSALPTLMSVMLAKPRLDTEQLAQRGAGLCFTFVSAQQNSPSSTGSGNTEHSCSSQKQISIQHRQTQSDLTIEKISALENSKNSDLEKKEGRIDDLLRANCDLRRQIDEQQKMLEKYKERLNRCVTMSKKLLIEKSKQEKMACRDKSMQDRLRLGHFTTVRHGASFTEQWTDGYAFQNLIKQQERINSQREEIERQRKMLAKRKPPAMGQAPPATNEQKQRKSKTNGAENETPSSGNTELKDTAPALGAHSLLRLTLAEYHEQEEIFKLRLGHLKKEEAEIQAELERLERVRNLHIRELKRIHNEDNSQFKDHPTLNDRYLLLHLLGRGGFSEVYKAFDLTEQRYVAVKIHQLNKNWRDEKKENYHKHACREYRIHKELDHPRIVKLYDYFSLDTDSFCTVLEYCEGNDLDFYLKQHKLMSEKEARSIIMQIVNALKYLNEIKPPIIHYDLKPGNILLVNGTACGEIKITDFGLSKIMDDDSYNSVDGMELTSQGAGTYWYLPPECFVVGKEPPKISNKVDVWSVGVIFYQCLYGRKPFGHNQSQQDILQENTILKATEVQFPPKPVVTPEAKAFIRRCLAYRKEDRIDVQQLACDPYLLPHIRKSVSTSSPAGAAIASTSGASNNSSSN
Casein kinase I isoform epsilon, sequence (P49674 whole entry, canonical isoform): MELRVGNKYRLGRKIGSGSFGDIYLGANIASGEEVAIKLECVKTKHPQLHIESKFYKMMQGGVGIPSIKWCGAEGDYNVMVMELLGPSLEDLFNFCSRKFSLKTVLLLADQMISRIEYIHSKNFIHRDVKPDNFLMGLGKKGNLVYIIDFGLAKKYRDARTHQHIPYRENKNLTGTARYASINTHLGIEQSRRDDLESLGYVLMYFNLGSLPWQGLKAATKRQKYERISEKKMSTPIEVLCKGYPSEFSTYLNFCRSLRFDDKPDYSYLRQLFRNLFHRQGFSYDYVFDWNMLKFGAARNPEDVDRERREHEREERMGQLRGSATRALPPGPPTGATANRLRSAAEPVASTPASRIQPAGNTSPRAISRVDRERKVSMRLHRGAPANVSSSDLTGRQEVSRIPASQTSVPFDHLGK
Casein kinase I isoform delta (Rattus norvegicus, UniProt Q06486, M82F), sequence (Q06486 whole entry M82F, canonical isoform): as the sequence (P48730 whole entry, canonical isoform) above, with M82F, I381V counted along it
Casein kinase I isoform gamma-3 (Homo sapiens), sequence (Q9Y6M4 whole entry, looked up, canonical isoform): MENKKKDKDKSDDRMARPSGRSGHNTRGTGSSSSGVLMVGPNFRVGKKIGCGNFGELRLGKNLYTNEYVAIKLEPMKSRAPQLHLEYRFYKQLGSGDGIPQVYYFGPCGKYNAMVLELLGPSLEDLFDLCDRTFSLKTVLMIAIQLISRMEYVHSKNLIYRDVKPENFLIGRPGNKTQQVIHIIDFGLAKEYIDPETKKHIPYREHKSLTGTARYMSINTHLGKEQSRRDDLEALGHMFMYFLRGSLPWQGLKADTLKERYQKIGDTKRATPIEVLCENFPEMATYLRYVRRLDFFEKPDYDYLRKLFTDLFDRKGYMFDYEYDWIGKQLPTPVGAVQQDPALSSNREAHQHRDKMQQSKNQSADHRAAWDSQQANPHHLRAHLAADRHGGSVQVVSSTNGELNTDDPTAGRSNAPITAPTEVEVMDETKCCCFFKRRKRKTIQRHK

In the case of `Fc1cccc(-n2cnc3c(NCc4nc5ccc(F)c(F)c5[nH]4)nc(N4CCOCC4)nc32)c1`, the Activity [1] is reported as “Toxic”.

For `COc1ccc(Cn2c(SCC(=O)Nc3nc4ccc(C(F)(F)F)cc4s3)nc3c(c2=O)SCC3)cc1`, the Imax [2] was 38.8%, the inhibition [3] was “Active” and the “fold change (FC)” value [4] was “<= 1.5”. For the same molecule, the IC50 [5] was 90 nM, the EC50 [6] was 1470 nM and the IC50 [7] was 410 nM. For the same molecule, the inhibition [8] was “Active”, the Emax [9] was 225% and the IC50 [10] was 90 nM. The “fold change (FC)” value [11] was “<= 1.3”, the inhibition [12] was “Active” and the IC50 [13] was 560 nM. The IC50 [14] was 710 nM.

With `Cc1ccc2nc(NC(=O)CSc3nc4c(c(=O)n3-c3ccccc3)SCC4)sc2c1` the inhibition [15] was “inactive”, the EC50 [16] was 3860 nM and the Activity [17] was 23%. It also gave an Imax [2] of 5.5%, an Activity [18] of 55% and an EC50 [19] of 1900 nM. The EC50 [20] was 4670 nM, the “fold change (FC)” value [4] was “<= 1.5” and the IC50 [5] was 40 nM. It also gave an EC50 [21] of 2330 nM, an Activity [22] of 66% and an IC50 [7] of 930 nM. For the same molecule, the inhibition [23] was “inactive”, the EC50 [24] was 2760 nM and the EC50 [25] was 1900 nM. For the same molecule, the Activity [26] was 59%, the inhibition [27] was “Active” and the EC50 [28] was 2050 nM. The inhibition [29] was “inactive”, the IC50 [10] was 320 nM and the Activity [30] was 54%. For the same molecule, the “fold change (FC)” value [11] was “<= 1.3”, the Ratio IC50 [31] was less than 17 and the IC50 [13] was 4030 nM. It also gave an IC50 [14] of 157 nM, an Activity [32] of 19% and a Ratio IC50 [33] of 4. It also gave an EC50 [34] of 8960 nM and a Ratio IC50 [35] of 4 to 7.
